# According to patent US8323909B2, “Methods of identifying small molecules for renewals, survival and migration of cardiac progenitors” (The Regents of the University of California, priority 2006, dated 2012):
# Tested on: isl1+ cardiac progenitor cells
# Assay: Chemical compound screen with β-gal tagged isl1+ cardiac progenitors (luciferase/β-gal activity, β-gal+ cell count, isl1 immunohistochemistry)
# Type: cell-based, mouse
# From the text: The inventors developed an assay based on the β-gal tagged cardiac progenitors to identify small molecules and defined factors that can trigger the renewal of the cardiac progenitors (FIGS. 4A and 4B). The isl1-mER-Cre-mER knock-in mice were utilized to conditionally mark embryonic and post-natal isl1+ cardiac progenitors. Mice which are double heterozygous for the isl1-mER-Cre-mER and the R26R-indicator allele allow the purification of a relatively homogeneous population of isl1+ cardiac progenitors after amplification on mesenchymal feeder layers.
# The β-gal substrate 6-O-β-galactopyranosyl-luciferin allows luciferase-mediated detection of light emission in genetically lacZ labelled cells in a high throughput manner (FIGS. 4A and 4B). 6-O-galactopyranosyl-luciferin is cleaved by (3-gal into D-Luciferin, which is processed by luciferase in an ATP-dependent step into Oxyluciferin and light.
# After screening a small molecule library containing over 15,000 compounds, a series of compounds that can trigger the expression of lacZ activity as well as the induction of the isl1 protein in cultured cardiac progenitor preparations was identified.
# The screen was based on three independent read-out systems. First, the chemical compound library was screened for luciferase activity, and thereby indirectly for β-gal activity of proliferating cells. Second, β-gar progenitor cells were counted within the mesenchymal feeder layers with and without compound treatment, and third, expression of the transcription factor isl1^+ per progenitor cell was screened in an immunohistochemically based analysis.
smiles,measurement,setting,value
"O=C1Nc2cc(Br)ccc2/C1=C1/Nc2ccccc2/C1=N\O [BIO, 6-bromoindirubin-3′-oxime]",effect on the proliferation capacity of isl1+ cardiac progenitor cells,,50-80 fold
same,β-galactosidase activity,"cardiac progenitor cells from isl1-mER-Cre-mER/R26R mice, after 4 days in culture, luciferase assay",significant increase
same,β-gal+ progenitor cell number,cells counted within mesenchymal feeder layers with and without compound treatment,significant increase
same,proliferation of isl1+ precursor cells,result in words (FIG. 5 legend),significant increase
